Data reported in patent US6919424B2, “Binding peptides for carcinoembryonic antigen (CEA)” (Dyax Corp., priority 2000, dated 2005).
Bridge positions count the residues as written; N and C are the ends. Ends that are not written are not given here. Peptide text beside a SMILES is read from it. * marks the point of attachment. 5FAM = O=C1OC2(c3ccc(O)cc3Oc3cc(O)ccc32)c2ccc(C(=O)*)cc21

How the values were obtained:
H6NA3 = biological target: T1, H6NA3 (Homo sapiens, UniProt P06731); experiment: Fluorescence anisotropy direct binding to H6NA3 / NA3
T1 construct: H6NA3, consisting of a hexahistidine leader and the N and A3 domains of CEA, was used
T1 sequence (P06731 35-144 limits assumed): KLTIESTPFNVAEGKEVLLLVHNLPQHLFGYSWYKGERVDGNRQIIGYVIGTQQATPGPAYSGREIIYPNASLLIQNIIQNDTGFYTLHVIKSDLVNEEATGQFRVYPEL
T1 sequence (P06731 501-588 limits assumed): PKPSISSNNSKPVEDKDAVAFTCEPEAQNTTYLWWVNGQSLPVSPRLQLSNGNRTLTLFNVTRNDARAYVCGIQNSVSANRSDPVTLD
Procedure: (§1) Each peptide was also provided with a C-terminal amide-functional linker useful for immobilizing peptides to various chromatographic substrates: -Ala18-Pro19-Gly20-Gly-Glu-Gly-Gly-Gly-Ser-Lys-CONH2 (SEQ ID NO:28). […] Aliquots of each peptide were fluorescently labeled using NHS-fluorescein reacted with the ε-amino side group of the C-terminal lysine.
Dissociation constants were determined using fluorescence anisotropy, through direct binding measurements and competition experiments. In direct binding assays, the concentration of the fluorescein-labeled peptide is held constant and the concentration of H6NA3 is varied. In the competition experiment, the concentration of the fluorescein-labeled peptide and the H6NA3 target are held constant and the concentration of a competitor (cT84.66, unlabeled) is varied. The change in anisotropy is fit to the appropriate equation via nonlinear regression to obtain the apparent Kd.
Aliquots of each peptide were fluorescently labeled using NHS-fluorescein reacted with the ε-amino side group of the C-terminal lysine.
Dissociation constants were determined using fluorescence anisotropy, through direct binding measurements (see Example 6).
as §1, with “Peptides including the binding domain of the CEA binder Isolates were synthesized by solid-phase synthesis. Each” for “Each”
Dissociation constants were determined using fluorescence anisotropy, through direct binding measurements to either NA-3 or CEA in PBS with 0.01% TWEEN 20. […] Isolate 304A-12-H12, previously isolated from Lib2 and assayed for binding, was analyzed in parallel as a control. […] KD standard error values are calculated from the nonlinear regression (SIGMAPLOT, SPSS Science, Chicago, Ill.).

NA3 = biological target: T2, NA3 (Homo sapiens, UniProt P06731); experiment: Phage ELISA with varying amounts of NA3 per well (FIGS. 2, 4, 5); format: binding; conditions: FIG. 2; 100, 50, 10, 5, 1, 0 ng per well
T2 construct: H6NA3, consisting of a hexahistidine leader and the N and A3 domains of CEA, was used
T2 sequence (P06731 35-144 limits assumed): T1 sequence (P06731 35-144 limits assumed)
T2 sequence (P06731 501-588 limits assumed): T1 sequence (P06731 501-588 limits assumed)
Procedure: The first bar for each sample represents wells each having 100 ng CEA. Successive bars represent 50 ng, 10 ng, 5 ng, 1 ng, and 0 ng CEA per well.
The first bar for each sample represents wells each having 30 ng NA3. Successive bars represent 10 ng, 3 ng, and 0 ng NA3 per well.
Several Isolates gave especially strong ELISA signals and these were tested further.
Several Isolates gave especially strong ELISA signals and these were tested further. […] Isolate 304A-12-H12 (designated DX306) was assayed in parallel as a basis for comparison.

CEA = biological target: T3, CEA (Homo sapiens, UniProt P06731); experiment: Fluorescence anisotropy direct binding to CEA; conditions: for binding to CEA (in words): compared with binding to NA3
T3 construct: purchased
T3 sequence (P06731 35-676): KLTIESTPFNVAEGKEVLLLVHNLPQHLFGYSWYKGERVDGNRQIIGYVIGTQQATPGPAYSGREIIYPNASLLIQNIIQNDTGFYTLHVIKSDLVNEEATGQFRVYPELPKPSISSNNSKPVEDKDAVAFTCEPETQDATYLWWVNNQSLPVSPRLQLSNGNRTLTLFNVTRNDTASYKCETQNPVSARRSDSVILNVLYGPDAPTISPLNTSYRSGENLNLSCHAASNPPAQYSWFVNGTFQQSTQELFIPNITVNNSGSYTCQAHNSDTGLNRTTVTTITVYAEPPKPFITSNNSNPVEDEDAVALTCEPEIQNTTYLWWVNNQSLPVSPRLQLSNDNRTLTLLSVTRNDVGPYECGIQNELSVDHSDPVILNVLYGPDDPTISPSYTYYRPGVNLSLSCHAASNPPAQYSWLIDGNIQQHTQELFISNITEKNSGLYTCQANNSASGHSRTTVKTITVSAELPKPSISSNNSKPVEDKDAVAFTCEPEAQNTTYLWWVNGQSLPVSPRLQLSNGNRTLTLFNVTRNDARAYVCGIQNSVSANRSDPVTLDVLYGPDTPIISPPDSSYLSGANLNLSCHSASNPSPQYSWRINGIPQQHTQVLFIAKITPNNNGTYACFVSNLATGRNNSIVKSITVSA
Procedure: Dissociation constants were determined using fluorescence anisotropy, through direct binding measurements to either NA-3 or CEA in PBS with 0.01% TWEEN 20. In direct binding assays, the concentration of the fluorescein-labeled peptide is held constant and the concentration of NA3 is varied. In the competition experiment, the concentration of the fluorescein-labeled peptide and the NA3 target are held constant and the concentration of competitor peptide (from Isolate 12-H12) is varied. The change in anisotropy is fit to the appropriate equation via nonlinear regression to obtain the apparent Kd. Isolate 304A-12-H12, previously isolated from Lib2 and assayed for binding, was analyzed in parallel as a control. Replicate analyses were run for certain binders and are reported to confirm accuracy and precision of measurements. KD standard error values are calculated from the nonlinear regression (SIGMAPLOT, SPSS Science, Chicago, Ill.).

Row | phage ELISA binding profile to varying amounts of NA3 (NA3) | Molecule | binding to CEA (in words) (CEA) | other results
1 | – | CC(C)C[C@H](NC(=O)[C@@H](NC(=O)[C@H](CC(=O)O)NC(=O)[C@@H]1CSSC[C@H](NC(=O)[C@@H](NC(=O)[C@H](Cc2c[nH]c3ccccc23)NC(=O)[C@H](CC(=O)O)NC(=O)[C@@H](N)CO)C(C)C)C(=O)N[C@@H](CCC(=O)O)C(=O)N[C@@H](Cc2ccc(O)cc2)C(=O)N[C@@H](Cc2ccccc2)C(=O)N[C@@H](CCCCN)C(=O)N[C@@H](CC(N)=O)C(=O)N[C@@H](CCC(N)=O)C(=O)N[C@@H](Cc2c[nH]c3ccccc23)C(=O)N[C@@H](Cc2ccccc2)C(=O)N1)[C@@H](C)O)C(=O)N[C@@H](C)C(=O)N1CCC[C@H]1C(=O)NCC(=O)NCC(=O)N[C@@H](CCC(=O)O)C(=O)NCC(=O)NCC(=O)NCC(=O)N[C@@H](CO)C(=O)N[C@@H](CCCCNC(=O)c1ccc2c(c1)C(=O)OC21c2ccc(O)cc2Oc2cc(O)ccc21)C(N)=O [Hybrid H12/A12, DWVCEYFKNQWFCDTL] | – | CEA binding characteristics compared with other isolates (H6NA3; direct binding KD, Table 7): comparable to the Isolates obtained from the initial library screen
2 | do not drop off so quickly | CC(C)C[C@@H]1NC(=O)[C@H](CC(N)=O)NC(=O)[C@@H](NC(=O)[C@@H](NC(=O)[C@H](Cc2c[nH]c3ccccc23)NC(=O)[C@H](CC(=O)O)NC(=O)[C@@H](N)CO)C(C)C)CSSC[C@@H](C(=O)N[C@@H](CC(=O)O)C(=O)N[C@H](C(=O)N[C@@H](CC(C)C)C(=O)N[C@@H](C)C(=O)N2CCC[C@H]2C(=O)NCC(=O)NCC(=O)N[C@@H](CCC(=O)O)C(=O)NCC(=O)NCC(=O)NCC(=O)N[C@@H](CO)C(=O)N[C@@H](CCCCNC(=O)c2ccc3c(c2)C(=O)OC32c3ccc(O)cc3Oc3cc(O)ccc32)C(N)=O)[C@@H](C)O)NC(=O)[C@H](Cc2ccccc2)NC(=O)[C@H](Cc2c[nH]c3ccccc23)NC(=O)[C@H](CCC(N)=O)NC(=O)[C@H](CC(N)=O)NC(=O)[C@H](CCCCN)NC(=O)[C@H](Cc2ccccc2)NC1=O [Isolate 304A-14-A12, DWVCNLFKNQWFCDTL] | – | increase in affinity compared to the Isolate G08 peptide (H6NA3; from KD of Table 7 versus Table 3): several fold increase in affinity
3 | – | CC(C)C[C@H](NC(=O)[C@H](CO)NC(=O)[C@H](CC(N)=O)NC(=O)[C@@H]1CSSC[C@H](NC(=O)[C@@H](NC(=O)[C@H](Cc2c[nH]c3ccccc23)NC(=O)[C@H](CC(=O)O)NC(=O)[C@@H](N)CO)C(C)C)C(=O)N[C@@H](CCC(=O)O)C(=O)N[C@@H](Cc2c[nH]c3ccccc23)C(=O)N[C@@H](CC(C)C)C(=O)N[C@@H](CCCCN)C(=O)N2CCC[C@H]2C(=O)N[C@@H](CCC(N)=O)C(=O)N[C@@H](Cc2c[nH]c3ccccc23)C(=O)N[C@@H](Cc2ccc(O)cc2)C(=O)N1)C(=O)N[C@@H](C)C(=O)N1CCC[C@H]1C(=O)NCC(=O)NCC(=O)N[C@@H](CCC(=O)O)C(=O)NCC(=O)NCC(=O)NCC(=O)N[C@@H](CO)C(=O)N[C@@H](CCCCNC(=O)c1ccc2c(c1)C(=O)OC21c2ccc(O)cc2Oc2cc(O)ccc21)C(N)=O [Isolate 315A-17-B12] (H-SDWVCEWLKPQWYCNSLAPGGEGGGSK(5FAM)-NH2; disulfide 5-14; N-terminus assumed) | did not appear to bind CEA | CEA KD (μM) direct binding (CEA; Table 10, commercial CEA, PBS with 0.01% TWEEN 20): (no binding)
4 | – | CC[C@H](C)[C@@H]1NC(=O)[C@H](Cc2ccccc2)NC(=O)[C@H](CCC(=O)O)NC(=O)[C@@H](NC(=O)[C@@H](NC(=O)[C@H](Cc2c[nH]c3ccccc23)NC(=O)[C@H](CC(=O)O)NC(=O)[C@@H](N)CO)C(C)C)CSSC[C@@H](C(=O)N[C@@H](CC(N)=O)C(=O)N[C@H](C(=O)N[C@@H](CC(C)C)C(=O)N[C@@H](C)C(=O)N2CCC[C@H]2C(=O)NCC(=O)NCC(=O)N[C@@H](CCC(=O)O)C(=O)NCC(=O)NCC(=O)NCC(=O)N[C@@H](CO)C(=O)N[C@@H](CCCCNC(=O)c2ccc3c(c2)C(=O)OC32c3ccc(O)cc3Oc3cc(O)ccc32)C(N)=O)C(C)C)NC(=O)[C@H](Cc2ccccc2)NC(=O)[C@H](Cc2c[nH]c3ccccc23)NC(=O)[C@H](CCC(N)=O)NC(=O)[C@H](CO)NC(=O)[C@H](CCCCN)NC1=O [Isolate 315A-17-G08] (H-SDWVCEFIKSQWFCNVLAPGGEGGGSK(5FAM)-NH2; disulfide 5-14; N-terminus assumed) | effectively bound CEA, but not as strongly as they bound NA3 | –
5 | – | CC[C@H](C)[C@H](NC(=O)[C@H](CC(N)=O)NC(=O)[C@@H]1CSSC[C@H](NC(=O)[C@@H](NC(=O)[C@H](Cc2c[nH]c3ccccc23)NC(=O)[C@H](CC(=O)O)NC(=O)[C@@H](N)CO)C(C)C)C(=O)N[C@@H](CCC(=O)O)C(=O)N[C@@H](Cc2ccccc2)C(=O)N[C@@H](Cc2ccccc2)C(=O)N[C@@H](CCCCN)C(=O)N[C@@H](CC(=O)O)C(=O)N[C@@H](CCC(N)=O)C(=O)N[C@@H](Cc2c[nH]c3ccccc23)C(=O)N[C@@H](Cc2ccccc2)C(=O)N1)C(=O)N[C@@H](CC(C)C)C(=O)N[C@@H](C)C(=O)N1CCC[C@H]1C(=O)NCC(=O)NCC(=O)N[C@@H](CCC(=O)O)C(=O)NCC(=O)NCC(=O)NCC(=O)N[C@@H](CO)C(=O)N[C@@H](CCCCNC(=O)c1ccc2c(c1)C(=O)OC21c2ccc(O)cc2Oc2cc(O)ccc21)C(N)=O [Isolate 315A-18-E02] (H-SDWVCEFFKDQWFCNILAPGGEGGGSK(5FAM)-NH2; disulfide 5-14; N-terminus assumed) | effectively bound CEA, but not as strongly as they bound NA3 | –
6 | at least as good as G08 and A07 | DWICNLFKNQWFCGPL (CEA binding polypeptide) [Isolate 304A-15-E04] | – | –
7 | at least as good as G08 and A07 | DWVCNLFKNQWFCDVP (CEA binding polypeptide) [Isolate 304A-14-B02] | – | –

Row | Molecule | phage ELISA binding profile to varying amounts of NA3 (NA3) | binding to CEA (in words) (CEA) | other results
8 | DWVCENKKDQWTCNLL (cysteine pairing not given here) [Isolate A07] | drops off very quickly as the amount of NA3 drops below 50 ng per well | – | –
9 | NWVCNLFKNQWFCNSY (cysteine pairing not given here) [Isolate G08] | drops off very quickly as the amount of NA3 drops below 50 ng per well | – | –
